Measured values reported in ChEMBL document CHEMBL1133385, “The de novo design and synthesis of cyclic urea inhibitors of factor Xa: optimization of the S4 ligand” (Bioorg Med Chem Lett, 2000).
pKi: −log10 of the molar value.

Tests used:
[1] = molecular target: Prothrombin (Homo sapiens, UniProt P00734); test: Inhibitory activity against thrombin
[2] = molecular target: Coagulation factor X (Homo sapiens, UniProt P00742); test: Inhibition of coagulation factor Xa
[3] = molecular target: Serine protease 1 (Homo sapiens, UniProt P07477); test: Inhibitory activity against trypsin
[4] = The compound was evaluated for volume of distribution in rabbit at a dose of 5 mg/kg/h administered i.v.; assay type: ADME, organism-based, Oryctolagus cuniculus; set-up: route intravenous; settings: in vivo, iv
[5] = Plasma clearance was determined in rabbit at a dose of 5 mg/kg/h administered i.v.; assay type: ADME, organism-based, Oryctolagus cuniculus; set-up: route intravenous; settings: iv
[6] = Maximum plasma concentration was determined in rabbit at a dose of 5 mg/kg/h administered i.v.; assay type: ADME, organism-based, Oryctolagus cuniculus; set-up: dose 5 mg/kg/h, route intravenous; settings: iv
[7] = Half life period was determined; settings: rabbit

Coagulation factor X, sequence (P00742 41-179 limits assumed): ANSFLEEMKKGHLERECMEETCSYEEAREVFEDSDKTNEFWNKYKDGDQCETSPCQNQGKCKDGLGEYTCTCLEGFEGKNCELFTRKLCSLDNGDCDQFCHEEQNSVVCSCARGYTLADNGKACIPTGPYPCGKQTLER
Coagulation factor X, sequence (P00742 235-488 limits assumed): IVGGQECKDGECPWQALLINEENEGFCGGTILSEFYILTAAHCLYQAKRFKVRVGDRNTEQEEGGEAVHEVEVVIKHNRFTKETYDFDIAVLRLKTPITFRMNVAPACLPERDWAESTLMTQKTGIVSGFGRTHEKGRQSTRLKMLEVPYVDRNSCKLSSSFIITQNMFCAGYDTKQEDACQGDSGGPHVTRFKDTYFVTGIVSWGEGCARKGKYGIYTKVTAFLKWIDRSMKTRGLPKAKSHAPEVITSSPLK
Serine protease 1, sequence (P07477 whole entry): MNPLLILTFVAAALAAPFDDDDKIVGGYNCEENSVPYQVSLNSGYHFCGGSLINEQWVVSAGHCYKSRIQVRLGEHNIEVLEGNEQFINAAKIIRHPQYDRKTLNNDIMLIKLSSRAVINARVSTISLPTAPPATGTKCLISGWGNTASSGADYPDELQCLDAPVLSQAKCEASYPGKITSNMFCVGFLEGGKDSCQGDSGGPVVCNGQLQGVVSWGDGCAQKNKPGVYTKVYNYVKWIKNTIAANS

Structure (SMILES): N=C(N)c1cccc(N2CCCCN(C3CCN(C(=O)c4ccccc4)CC3)C2=O)c1
- pKi [1]: < 4.68

Structure (SMILES): N=C(N)c1cccc(N2CCCCN(C3CCN(Cc4cccs4)CC3)C2=O)c1
- pKi [2]: 7.10
- pKi [1]: 5.85
- pKi [3]: 6.77

Structure (SMILES): N=C(N)c1cccc(N2CCCCN(C3CCN(S(=O)(=O)c4ccccc4)CC3)C2=O)c1
- pKi [2]: 7.62
- pKi [1]: 5.80
- pKi [3]: 7.22

Structure (SMILES): N=C(N)c1cccc(N2CCCCN(C3CCN(C(=O)Cc4ccccc4)CC3)C2=O)c1
- pKi [2]: 6.05
- pKi [1]: 4.93

Structure (SMILES): N=C(N)c1cccc(N2CCCCN(C3CCN(S(=O)(=O)Cc4ccccc4)CC3)C2=O)c1.O=C(O)C(F)(F)F
- Vd [4]: 0.23 L/kg
- clearance [5]: 68.3 mL/min/kg
- Cmax [6]: 4.8 µM
- pKi [2]: 8.00
- pKi [1]: 6.30
- pKi [3]: 7.10
- half-life [7]: 2.4 min

Structure (SMILES): Cl.N=C(N)c1cccc(N2CCCCN(C3CCN(S(=O)(=O)c4cccs4)CC3)C2=O)c1
- Vd [4]: 1.1 L/kg
- clearance [5]: 11.3 mL/min/kg
- Cmax [6]: 36 µM
- pKi [2]: 7.92
- pKi [1]: 5.82
- pKi [3]: 7.28
- half-life [7]: 66 min

Structure (SMILES): N=C(N)c1cccc(N2CCCCN(C3CCN(S(=O)(=O)c4cccc(N)c4)CC3)C2=O)c1
- pKi [2]: 6.70
- pKi [1]: 5.66

Structure (SMILES): N=C(N)c1cccc(N2CCCCN(C3CCN(S(=O)(=O)c4ccccc4N)CC3)C2=O)c1
- pKi [2]: 7.47
- pKi [1]: 5.62
- pKi [3]: 6.89

Structure (SMILES): N=C(N)c1cccc(N2CCCCN(C3CCN(S(=O)(=O)Cc4ccccn4)CC3)C2=O)c1.O=C(O)C(F)(F)F.O=C(O)C(F)(F)F
- Vd [4]: 0.34 L/kg
- clearance [5]: 132 mL/min/kg
- Cmax [6]: 2.4 µM
- pKi [2]: 8.00
- pKi [1]: 6.30
- pKi [3]: 7.24
- half-life [7]: 1.8 min

Structure (SMILES): N=C(N)c1cccc(N2CCCCN(C3CCN(Cc4ccncc4)CC3)C2=O)c1
- pKi [2]: 6.70
- pKi [1]: 5.17

Structure (SMILES): N=C(N)c1cccc(N2CCCCN(C3CCN(Cc4cccnc4)CC3)C2=O)c1
- pKi [2]: 6.17
- pKi [1]: 5.28

Structure (SMILES): N=C(N)c1cccc(N2CCCCN(C3CCN(Cc4ccccn4)CC3)C2=O)c1
- pKi [2]: 7.92
- pKi [1]: 5.59
- pKi [3]: 6.92

Structure (SMILES): N=C(N)c1cccc(N2CCCCN(C3CCN(S(=O)(=O)c4ccc(N)cc4)CC3)C2=O)c1
- pKi [2]: 7.15
- pKi [1]: 5.20
- pKi [3]: 6.72

Structure (SMILES): N=C(N)c1cccc(N2CCCCN(C3CCN(CCc4ccccc4)CC3)C2=O)c1
- pKi [2]: 6.66
- pKi [1]: 5.44
- pKi [3]: 6.00
